Laboratory results from US20090054421A1, “Pyrimidothiophene Compounds Having HSP90 Inhibitory Activity” (Vernalis R & D Limited, priority 2005, published 2009).

molecular target: T1, human full-length HSP90 (Homo sapiens, UniProt P08238); assay: Fluorescence polarization assay (competitive displacement of fluorescein-labelled probe from HSP90); type: binding; settings: activity range A or B
T1 construct: E. coli expressed human full-length HSP90 protein, purified >95%; made in house; host or cells: E. coli
Description: Fluorescence Polarization Assay
Fluorescence polarization {also known as fluorescence anisotropy} measures the rotation of a fluorescing species in solution, where the larger molecule the more polarized the fluorescence emission. When the fluorophore is excited with polarized light, the emitted light is also polarized. The molecular size is proportional to the polarization of the fluorescence emission.
The fluoroscein-labelled probe—
binds to HSP90 {full-length human, full-length yeast or N-terminal domain HSP90} and the anisotropy {rotation of the probe:protein complex} is measured.
Test compound is added to the assay plate, left to equilibrate and the anisotropy measured again. Any change in anisotropy is due to competitive binding of compound to HSP90, thereby releasing probe.
Chemicals are of the highest purity commercially available and all aqueous solutions are made up in AR water. • 1) Costar 96-well black assay plate #3915 • 2) Assay buffer of (a) 100 mM Tris pH7.4; (b) 20 mM KCl; (c) 6 mM MgCl2. Stored at room temperature. • 3) BSA (bovine serum albumen) 10 mg/ml (New England Biolabs # B9001S) • 4) 20 mM probe in 100% DMSO stock concentration. Stored in the dark at RT. Working concentration is 200 nM diluted in AR water and stored at 4° C., Final concentration in assay 80 nM. • 5) E. coli expressed human full-length HSP90 protein, purified >95% (see, e.g., Panaretou et al., 1998) and stored in 50 μL aliquots at −80° C.
• 1) Add 100 μl 1× buffer to wells 11A and 12A (=FP BLNK) • 2) Prepare assay mix—all reagents are kept on ice with a lid on the bucket as the probe is light-sensitive.
• 3) Aliquot 100 μl assay mix to all other wells • 4) Seal plate and leave in dark at room temp for 20 minutes to equilibrate Compound Dilution Plate—1×3 dilution series • 1) In a clear 96-well v-bottom plate—{# VWR 007/008/257} add 10 μl 100% DMSO to wells B1 to H11 • 2) To wells A1 to A11 add 17.5 μl 100% DMSO • 3) Add 2.5 μl cpd to A1. This gives 2.5 mM {50×} stock cpd—assuming cpds 20 mM. • 4) Repeat for wells A2 to A10. Control in columns 11 and 12. • 5) Transfer 5 μl from row A to row B—not column 12. Mix well. • 6) Transfer 5 μl from row B to row C. […] In column 11 {provides standard curve} only add compound B11-H11. Add 2 μl of 100 mM standard cpd to wells B12-H12 {is positive control} • 13) The Z′ factor is calculated from zero controls and positive wells. It typically gives a value of 0.7-0.9.
The compounds tested in the above assay were assigned to one of two activity ranges, namely A=<10 μM; B=>10 μM, and those assignments are reported above.

T1 sequence (P08238 whole entry): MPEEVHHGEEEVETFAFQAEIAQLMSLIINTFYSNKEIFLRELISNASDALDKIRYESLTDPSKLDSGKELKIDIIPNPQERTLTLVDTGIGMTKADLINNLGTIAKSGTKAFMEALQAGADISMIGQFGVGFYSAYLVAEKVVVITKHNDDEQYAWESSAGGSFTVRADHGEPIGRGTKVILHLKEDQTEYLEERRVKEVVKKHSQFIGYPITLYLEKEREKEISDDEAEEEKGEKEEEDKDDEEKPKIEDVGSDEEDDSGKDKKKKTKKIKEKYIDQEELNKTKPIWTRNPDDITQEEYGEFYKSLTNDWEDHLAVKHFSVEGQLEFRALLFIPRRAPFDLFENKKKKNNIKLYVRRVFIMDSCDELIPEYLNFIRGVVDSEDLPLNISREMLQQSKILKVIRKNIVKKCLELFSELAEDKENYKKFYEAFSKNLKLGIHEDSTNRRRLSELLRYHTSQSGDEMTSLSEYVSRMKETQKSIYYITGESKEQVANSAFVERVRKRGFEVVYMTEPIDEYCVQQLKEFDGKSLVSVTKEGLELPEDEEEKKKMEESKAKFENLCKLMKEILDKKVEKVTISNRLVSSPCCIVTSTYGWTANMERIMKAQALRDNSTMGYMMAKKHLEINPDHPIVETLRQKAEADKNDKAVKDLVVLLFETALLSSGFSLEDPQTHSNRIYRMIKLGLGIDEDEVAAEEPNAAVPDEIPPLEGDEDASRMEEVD

SMILES	IC50
CCNC(=O)c1cc2c(C(=NOC)c3ccc4c(c3)OCCN4C)nc(N)nc2s1 (mixture of isomers) [Example 1, 2-Amino-4-[methoxyimino-(4-methyl-3,4-dihydro-2H-benzo[1,4]oxazin-7-yl)-methyl]-thieno[2,3-d]pyrimidine-6-carboxylic acid ethylamide]	< 10 µM
CCNC(=O)c1cc2c(C(=NO)c3ccc4c(c3)OCCN4C)nc(N)nc2s1 (mixture of isomers) [Example 2, 2-Amino-4-[hydroxyimino-(4-methyl-3,4-dihydro-2H-benzo[1,4]oxazin-7-yl)-methyl]-thieno[2,3-d]pyrimidine-6-carboxylic acid ethylamide]	< 10 µM
CCNC(=O)c1cc2c(C(=NOCCN3CCCC3)c3ccc4c(c3)OCO4)nc(N)nc2s1 (mixture of isomers) [Example 28]	< 10 µM
CCNC(=O)c1cc2c(C(=NOCCN3CCCC3=O)c3ccc4c(c3)OCO4)nc(N)nc2s1 (mixture of isomers) [Example 29]	< 10 µM
CCNC(=O)c1cc2c(C(=NOCCN(CC)CC)c3cc4c(cc3Cl)OCO4)nc(N)nc2s1 (mixture of isomers) [Example 30]	< 10 µM
CCNC(=O)c1cc2c(C(=NO)c3ccc4c(c3)OCO4)nc(N)nc2s1 [Example 3, 2-Amino-4-(benzo[1,3]dioxol-5-yl-hydroxyimino-methyl)-thieno[2,3-d]pyrimidine-6-carboxylic acid ethylamide]	< 10 µM
CCOC(=O)c1cc2c(C(=NOC)c3ccc4c(c3)OCO4)nc(N)nc2s1 [Example 4, 2-Amino-4-(benzo[1,3]dioxol-5-yl-methoxyimino-methyl)-thieno[2,3-d]pyrimidine-6-carboxylic acid ethyl ester]	< 10 µM
CCNC(=O)c1cc2c(C(=NO)c3ccccn3)nc(N)nc2s1 [Example 5]	< 10 µM
CCNC(=O)c1cc2c(C(=NO)c3cc4c(cc3Cl)OCO4)nc(N)nc2s1 [Example 6]	< 10 µM
CCNC(=O)c1cc2c(C(=NO)c3cccnc3)nc(N)nc2s1 [Example 7]	> 10 µM
CCNC(=O)c1cc2c(C(=NO)c3cccc(OC)c3)nc(N)nc2s1 [Example 9]	< 10 µM
CCNC(=O)c1cc2c(C(=NO)c3ccc(Cl)cc3)nc(N)nc2s1 [Example 10]	< 10 µM
CCNC(=O)c1cc2c(C(=NO)c3ccccc3Cl)nc(N)nc2s1 [Example 11]	> 10 µM
CCNC(=O)c1cc2c(C(=NO)c3ccc(OC)cc3)nc(N)nc2s1 [Example 12]	< 10 µM
CCNC(=O)c1cc2c(C(=NO)c3cccc(Cl)c3)nc(N)nc2s1 [Example 13]	< 10 µM
CCNC(=O)c1cc2c(C(=NO)c3ccc4ccccc4c3)nc(N)nc2s1 [Example 14]	< 10 µM

SMILES	IC50
CCNC(=O)c1cc2c(C(=NO)c3ccc(OC)c(OC)c3)nc(N)nc2s1 [Example 15]	< 10 µM
CCNC(=O)c1cc2c(C(=NO)c3ccc4c(c3)CCO4)nc(N)nc2s1 [Example 16]	< 10 µM
CCNC(=O)c1cc2c(C(=NO)c3ccco3)nc(N)nc2s1 [Example 17]	< 10 µM
CCNC(=O)c1cc2c(C(=NO)c3ccc4[nH]ccc4c3)nc(N)nc2s1 [Example 18]	< 10 µM
CCNC(=O)c1cc2c(C(=NO)c3ccoc3)nc(N)nc2s1 [Example 19]	< 10 µM
Nc1nc(C(=NO)c2ccc3c(c2)OCO3)c2cc(C(=O)NC3CC3)sc2n1 [Example 20, 2-Amino-4-(benzo[1,3]dioxol-5-yl-hydroxyimino-methyl)-thieno[2,3-d]pyrimidine-6-carboxylic acid cyclopropylamide]	< 10 µM
CC(C)(C)NC(=O)c1cc2c(C(=NO)c3ccc4c(c3)OCO4)nc(N)nc2s1 [Example 21]	< 10 µM
COCCNC(=O)c1cc2c(C(=NO)c3ccc4c(c3)OCO4)nc(N)nc2s1 [Example 22]	< 10 µM
CN(C)CCCNC(=O)c1cc2c(C(=NO)c3ccc4c(c3)OCO4)nc(N)nc2s1 [Example 23]	< 10 µM
CN(C)CCNC(=O)c1cc2c(C(=NO)c3ccc4c(c3)OCO4)nc(N)nc2s1 [Example 24]	< 10 µM
Nc1nc(C(=NO)c2ccc3c(c2)OCO3)c2cc(C(=O)NCC(F)(F)F)sc2n1 [Example 25]	< 10 µM
CCNC(=O)c1cc2c(C(=NOCCN(CC)CC)c3ccc4c(c3)OCO4)nc(N)nc2s1 [Example 26, 2-Amino-4-(benzo[1,3]dioxol-5-yl-(2-diethylamino-ethoxyimino)-methyl]-thieno[2,3-d]pyrimidine-6-carboxylic acid ethylamide]	< 10 µM
CCNC(=O)c1cc2c(C(=NOCCN(CC)CC)c3cccc(OC)c3)nc(N)nc2s1 [Example 31]	< 10 µM
CCNC(=O)c1cc2c(C(=NOCCN(CC)CC)c3ccc4c(c3)OCCO4)nc(N)nc2s1 [Example 32]	< 10 µM
CCNC(=O)c1cc2c(C(=NOCCN(CC)CC)c3ccc(OC)cc3)nc(N)nc2s1 [Example 33]	< 10 µM
CCNC(=O)c1cc2c(C(=NOCC(=O)O)c3ccc4c(c3)OCO4)nc(N)nc2s1 [Example 34]	< 10 µM

The remaining lines, values ahead:

IC50	SMILES
< 10 µM	CC(C)NC(=O)c1cc2c(C(=NOCCN3CCCC3=O)c3ccc4c(c3)OCO4)nc(N)nc2s1 (mixture of isomers) [Example 46]
< 10 µM	CC(C)(C)NC(=O)c1cc2c(C(=NOCCN3CCCC3)c3ccc4c(c3)OCO4)nc(N)nc2s1 (mixture of isomers) [Example 54]
< 10 µM	COCCNC(=O)c1cc2c(C(=NOCCN3CCCC3=O)c3ccc4c(c3)OCO4)nc(N)nc2s1 (mixture of isomers) [Example 57]
< 10 µM	CCNC(=O)c1cc2c(C(=NOCC(=O)N3CCCCC3)c3ccc4c(c3)OCO4)nc(N)nc2s1 [Example 35]
> 10 µM	CCNC(=O)c1cc2c(C(=NOCCN(CC)CC)c3ccco3)nc(N)nc2s1 [Example 37]
> 10 µM	CCNC(=O)c1cc2c(C(=NOCCN(CC)CC)c3cccs3)nc(N)nc2s1 [Example 38]
> 10 µM	CCNC(=O)c1cc2c(C(=NOCCN3CCCC3)c3cccs3)nc(N)nc2s1 [Example 39]
< 10 µM	CCNC(=O)c1cc2c(C(=NOCCN3CCCC3=O)c3cccs3)nc(N)nc2s1 [Example 40]
< 10 µM	CCNC(=O)c1cc2c(C(=NOCCN(CC)CC)c3ccco3)nc(N)nc2s1 [Example 41]
> 10 µM	CCNC(=O)c1cc2c(C(=NOCCN(CC)CC)c3ccncc3)nc(N)nc2s1 [Example 42]
< 10 µM	CCNC(=O)c1cc2c(C(=NOCCN3CCCC3)c3ccco3)nc(N)nc2s1 [Example 43]
< 10 µM	CCN(CC)CCON=C(c1ccc2c(c1)OCO2)c1nc(N)nc2sc(C(=O)NC(C)C)cc12 [Example 44]
< 10 µM	CC(C)NC(=O)c1cc2c(C(=NOCCN3CCCC3)c3ccc4c(c3)OCO4)nc(N)nc2s1 [Example 45]
< 10 µM	CCNC(=O)c1cc2c(C(=NOCCN3CCCC3=O)c3ccco3)nc(N)nc2s1 [Example 47]
> 10 µM	CCNC(=O)c1cc2c(C(=NOCCN3CCCC3)c3ccncc3)nc(N)nc2s1 [Example 48]
< 10 µM	CCNC(=O)c1cc2c(C(=NO)c3cccs3)nc(N)nc2s1 [Example 50]
> 10 µM	CCNC(=O)c1cc2c(C(=NO)c3ccncc3)nc(N)nc2s1 [Example 51]
< 10 µM	CCN(CC)CCON=C(c1ccc2c(c1)OCO2)c1nc(N)nc2sc(C(=O)NCCOC)cc12 [Example 52]
< 10 µM	COCCNC(=O)c1cc2c(C(=NOCCN3CCCC3)c3ccc4c(c3)OCO4)nc(N)nc2s1 [Example 53]
